The subject of data set [1] is cultured neuronal cells. The conditions noted are these: cited from earlier work.
Data set [2] has as its system intracellular free calcium. Particulars: 5 μM; ischemic condition (19-fold increase); cited from earlier work.
For data set [3], the system named is sodium channel. The conditions noted are these: cited from earlier work.
Data set [4] concerns hypoxia-induced neuronal cell death. Particulars: 1.2 μM; cited from earlier work.
For data set [5], the system named is human lung cancer cell line H460. Briefly: Cell density of H460 cells (phase contrast). In kind it is cell-based. As for the experimental part: (§1) Cancer Cell Culture. The mouse liver cancer cell line BNLT3 (gift of Dr. Jack Wands, Brown University) and the human lung cancer cell line H460 (ATCC) were seeded into 96-well plates at a density of 4,000 cells/well and cultured at 37° C., 5% CO2, in DMEM (11965, Gibco) supplemented with 10% fetal bovine serum, 20 mM HEPES, 1 mM sodium pyruvate, and […] gentamycin (all reagents came from Gibco).
(§2) Cell Insults and Treatments. Determination of concentration for each anticancer drug in our experiments was based on its reported concentration in human cerebral spinal fluid (CSF) in chemotherapy, literature report of its neurotoxicity in culture, and our preliminary in vitro experimental data. At 13 d.i.v., the neuronal cell cultures were insulted with 100 μM of MTX (M9929, Sigma), 25 μM of 5-FU (F6627, Sigma), or 3.5 μM of CDDP (sc-200896, Santa Cruz) for 3 days in absence or presence of PAN 811.Cl.H2O. For ROS examination, the neurons were insulted with both 100 μM of MTX and 25 μM of 5-FU by 15 d.i.v. PAN-811.Cl.H2O was added to cultures to final concentrations of 1.25, 2.5, 5, and 10 μM at the same time as addition of the anticancer drugs. For cancer cell lines, the cells were insulted by the second day of cell seeding with the same concentration of MTX, 5-FU, or CDDP as used in neuronal culture in the absence or presence of 10 μM PAN-811.Cl.H2O for another 3 days.
(§3) Quantitative Assays and Morphological Assessment. Cell membrane integrity and mitochondrial function of either neurons or cancer cells were measured with LDH and 3-(4,5-dimethylthiazol-2-yl)-5-(3-carboxymethoxyphenyl)-2-(4-sulfophenyl)-2H-tetrazolium [MTS] analyses, respectively. The latter has been used to quantify cell survival. For the LDH assay, a mixture of a 35 μL aliquot of culture supernatant and 17.5 μL of Mixed Substrate, Enzyme and Dye Solutions (Sigma) was incubated at room temperature (RT) for 30 minutes. For the MTS assay, 10 μL of MTS reagent (Promega) was added to a culture well containing neurons in 50 μL of medium. The preparations were incubated at 37° C. for 2 hours. The preparations for both assays were then spectrophotometrically measured at 490 nm using a 96-well plate reader (Mode 550, Bio-Rad). Neuronal cell death was morphologically determined based on the integrity of the cell soma and continuity of neuronal processes. The change in number of cancer cells was judged directly by cell density. Cells were photographed under an inverted phase contrast microscope (IX 70, Olympus) using 10× or 20× objective.

Data set [6] relates to mixed cortical and striatal neurons. Briefly: MTS assay (cell viability) in neuronal cell culture. In kind it is cell-based. As for the experimental part:
Neuronal Cell Culture. Mixed cortical and striatal neurons fromembryonic day 17 male Sprague-Dawley rats (tissue obtained from NIH) were seeded into poly-D-lysine coated 96-well plates at density of 50,000 cells/well and initially cultured at 37° C., 5% CO2, in neurobasal medium (NB) with B27 supplement (Invitrogen) containing full strength of AOs to obtain highly enriched (95%) neurons. Since AOs, including vitamin E, vitamin E acetate, superoxide dismutase (SOD), catalase (CAT), and GSH, are additives to culture medium, reduction of AO concentration in culture medium provides an approach to determine the level of OS involvement in a neurotoxic process. In our study, the culture medium was replaced at a 50% ratio with NB plus B27 minus AOs twice at days 7 and 9 to set AO concentrations as 50% and 25%, respectively. At 16 days in vitro (d.i.v.), a fraction of the culture medium was harvested for lactate dehydrogenase (LDH) assay, and then AO concentration was reduced to 12.5% and cultured for a further 5 hours prior to ending the experiment.
as §2, §3
Data Analysis. Data were generated from 4-6 replicate wells, expressed as mean±standard deviation (SD), and statistically evaluated at a significance level of 1% with one factor ANOVA or Student's t-test by using software VASSARSTATS (http://vassarstats.net/) followed by the Tukey HSD test. Figure symbols are as follows: #, P<0.05, and ##, P<0.01, compared with control; *, P<0.05, and **, P<0.01, compared with the insulted group; §§, P<0.01, compared with PAN-811 treated group by Student's t-test.
A general note: Tetrazolium assays rely on reduction of a dye to a coloured formazan, in cell work by metabolically active cells.

The conditions of data set [7]: cell-free system, EDTA as positive control; cited from earlier work.
Data set [8] relates to mouse liver cancer cell line BNLT3. Briefly: Cell density of BNLT3 cells (phase contrast). The data set is classed as cell-based. Here is the method: as §1, §2, §3
In data set [9] the target is T1, ribonucleotide reductase (Homo sapiens, UniProt P31350).
T1 sequence (P31350 1-389): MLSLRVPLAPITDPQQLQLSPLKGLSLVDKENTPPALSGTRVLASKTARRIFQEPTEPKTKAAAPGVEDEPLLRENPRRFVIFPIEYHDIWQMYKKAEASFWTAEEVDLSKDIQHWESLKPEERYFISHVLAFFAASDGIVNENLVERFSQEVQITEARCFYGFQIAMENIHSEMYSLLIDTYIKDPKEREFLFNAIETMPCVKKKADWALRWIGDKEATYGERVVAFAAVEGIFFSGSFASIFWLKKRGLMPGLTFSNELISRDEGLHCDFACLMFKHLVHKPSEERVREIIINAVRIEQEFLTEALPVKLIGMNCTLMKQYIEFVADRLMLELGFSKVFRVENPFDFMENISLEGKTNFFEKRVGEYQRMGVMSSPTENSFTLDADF
Particulars: cited from earlier work.

[10] abbreviates: 3.5 μM CDDP and 10 μM PAN-811, 3 days.
Where [11] appears, read: 25 μM 5-FU and 10 μM PAN-811, 3 days.
Setting [12] is: 100 μM MTX and 10 μM PAN-811, 3 days.
Where [13] appears, read: each agent alone, 3 days: MTX 100 μM, 5-FU 25 μM, CDDP 3.5 μM, PAN-811 10 μM.

Entries after “also recorded” stand apart in the source; their conditions may differ.

The values below come from patent publication US10525044B2, “Treatment for chemotherapy-induced peripheral neuropathy” (priority 2013, dated 2020).

For `NC(=S)N/N=C/c1ncccc1N` [PAN-811, 3-aminopyridine-2-carboxaldehyde thiosemicarbazone], the “neuroprotection against glutamate insult” value in data set [1] (cells pretreated with 10 μM for 24 h) is reported as “Nearly complete neuroprotection”. Moreover, the glutamate-induced excitatory cytotoxicity result in [1] is recorded as “prevents”. Further, in data set [2], the “reduction of elevated intracellular free calcium” value is 72%. Moreover, in data set [3], the “veratridine-induced sodium channel opening related to Ca2+ influx” value is given as “prevents”. Further, the “hypoxia-induced neuronal cell death” value in data set [4] is recorded as “completely halted”. Moreover, the “cell density, cotreatment with CDDP” value in data set [5] (setting [10]) was “greatly decreased the cell density”; in [8] (setting [10]), “significant reduction in the cell density”. For the same compound, the “cell density, cotreatment with 5-FU” value in [5] (setting [11]) was “robustly decreased the cell density”. The figures for the “cell density, cotreatment with MTX” value in data set [5] (setting [12]) and in data set [8] (setting [12]) were “robustly decreased the cell density” and “cell density was also much lower than that in no-insult control”, respectively. Also, the cell density entry in [5] (setting [13]) is given as “robustly decreased the cell density; also recorded: greatly decreased the cell density”. In addition, the “inhibition of CDDP-induced MTS reduction” value in data set [6] (10 μM PAN-811, 3.5 μM CDDP, 12.5% AO) was 48%. The “5-FU-induced MTS reduction” value in data set [6] (10 μM PAN-811, 25 μM 5-FU, 12.5% AO) is “completely blocked”. Besides, the “5-FU- or CDDP-induced MTS reduction, dose dependence” value in [6] (neurons in 12.5% AO, PAN-811 1.25-10 μM) was “dose-dependently inhibited”. In addition, the “chelation of free calcium” value in [7] was “as efficiently as EDTA”. Also, the “cell number, cotreatment with 5-FU” value in data set [8] (setting [11]) is “significantly decreased the cell number”. For the same compound, in data set [8] (setting [13]), the “cell density / cancer cell number” value is “cell density was also much lower than that in no-insult control; also recorded: significant reduction in the cell density”. In addition, the “ability to inhibit ribonucleotide reductase” value in data set [9] is “inhibit”.
